Consider three compounds from patent US20240009150A1, “CAPSAICYNS IN THE TREATMENT OF LEAKY GUT” (AXICHEM AB [SE]/[SE], priority 2020, published 2024).

SMILES strings stand for the structures.

The test system of this assay is Salmonella enterica subsp. enterica serovar Paratyphi C (ATCC® BAA1714™). As to the kind of experiment: Inhibition of biofilm formation with different capsaicyn compounds, crystal violet staining assay (Example 6). Format: cell-based. The note with it: for Biofilm (OD 595 nm): 24 hr, 30° C. How it is done: Biofilm formation was quantified with modifications using the method described by Stepanovic et al. (Journal of Microbiological Methods, 2000, 40(2), 175-19) with modifications. Using a 96-well microplate duplicate the test solutions were filled at the above selected doses. Cultures were grown for 18 hr in LB at 30° C. and adjusted to OD 0.1 at 600 nm. 20 μL of the culture were added into each well and the remainder of the volume to 200 μL per well was filled with LB. Unused external wells were filled with 200 μL of sterile water to prevent evaporation.
After 24 hr of incubation, supernatants were discarded, and the wells were washed three times with 200 μL of sterile phosphate buffered saline (PBS). Bacteria adhered to the wells were fixed with 200 μL of methanol for 15 min, the methanol was discarded, and the plates dried at 25° C.
Each well was stained with 200 μL of 0.3% (w/v) crystal violet solution for 5 min at 25° C. Crystal violet excess was pipetted out, and the wells were rinsed five times with sterile PBS. 200 μL of 33% (v/v) glacial acetic acid were added to the wells for 30 min to solubilise the dye adhered to the cell walls. Optical density (OD) was measured at 595 nm using a microplate spectrophotometer as a direct measure of biofilm formation. P. aeruginosa in 3% DMSO will be used as the negative control.
A stock solution of 500 μg of phenylcapsaicin, capsaicin, compound a, compound b, compound c, was prepared by dissolving 500 μg in 100 μl of ethanol and 900 μl of sterile water. The stock solutions were sequentially diluted with quadruple volumes of solvent (10% aqueous ethanol solution) to yield 125/31.25 (32)/7.81 (8)/1.95 (2) μg/ml test solutions.
ATCC® BAA1714™ was used to determine the biofilm inhibition activity. Inducer N-hexanoyl homoserine lactone (C6-HSL) was purchased from Sigma-Aldrich. ATCC® BAA1714™ was cultivated in Luria-Bertani (LB) medium (LB, 5 g yeast extract, 10 g tryptone, 5 g NaCl, 1 L water) at 37° C. overnight under aerobic conditions.
Crystal violet staining assay was performed as in Experiment 3, using ATCC® BAA1714™ in 3% DMSO as the control.

Where [1] appears, read: any dose tested (125, 32, 8, 2 μg/ml).

Turning to `COc1cc(CNC(=O)CCCCC#CC2CCCCC2)ccc1O` [compound a], the “Biofilm (OD 595 nm)” value is 6.5 OD 595 nm (2 μg/mL), 6.8 OD 595 nm (8 μg/mL), 7.1 OD 595 nm (32 μg/mL) and 8.2 OD 595 nm (125 μg/mL). Under “2 μg/ml dose”, the “biofilm formation inhibition activity relative to the activity of phenylcapsaicin” value is on record as about 33%. In addition, the “biofilm formation inhibition activity, in words” value (2 μg/ml dose) is given as “modest biofilm formation inhibition activity”.

As for `COc1cc(CNC(=O)CCCCC#CC(C)(C)C)ccc1O` [compound b], the “Biofilm (OD 595 nm)” value is reported as 8.1 OD 595 nm (2 μg/mL), 7.9 OD 595 nm (8 μg/mL), 8.2 OD 595 nm (32 μg/mL) and 8.8 OD 595 nm (125 μg/mL). Besides, the “biofilm formation inhibition activity, in words” value under setting [1] is listed as “did not show biofilm formation inhibition activity”.

Take `COc1cc(CNC(=O)CCCCC#CC(C)(C)C)ccc1OC(C)=O` [compound c]: the “Biofilm (OD 595 nm)” value is, setting by setting: (2 μg/mL) 8.0 OD 595 nm; (8 μg/mL) 8.6 OD 595 nm; (32 μg/mL) 8.5 OD 595 nm; (125 μg/mL) 8.7 OD 595 nm. Moreover, the “biofilm formation inhibition activity, in words” value under setting [1] is “did not show biofilm formation inhibition activity”.
